Assay results from article PMC4760274, “Elongation factor 2 kinase promotes cell survival by inhibiting protein synthesis without inducing autophagy” (Cellular Signalling, 2016).
Peptide text beside a SMILES is read from it. * marks the point of attachment. Cbz = O=C(OCc1ccccc1)*

What was measured:
[1] = test system: P-eEF2 in WT MEFs; experiment: eEF2 phosphorylation in wild-type MEFs (western blot); type: cell-based, mouse; settings: MK2206 5 μM or 2DG 10 mM, 24 h, Fig. 3A
Experimental: After treatment, cells were lysed in ice-cold lysis buffer containing 1% (v/v) Triton X-100 (215680010, Acros Organics), 50 mM Tris (T6066-1KG, Sigma-Aldrich)–HCl (258148-2.5 L, Sigma-Aldrich) pH 7.4, 50 mM NaCl (BP358-212, Fisher Scientific), 0.2 mM EDTA (BP120-500, Fisher Scientific), 0.2 mM EGTA (E1102, Melford), 50 mM β-glycerophosphate (G9422, Sigma-Aldrich), 1 mM Na3VO4 (S6508, Sigma-Aldrich), 15 mM β-mercaptoethanol (125472500, Acros Organics) and 1 × protease inhibitor cocktail (5056489001, Roche). Lysates were spun at 16,000 × g for 10 min at 4 °C; the supernatants were kept and total protein concentration was quantified by Bradford assay following the manufacturer's instructions. […]
Fig. 3 Role of eEF2K in autophagy in mouse embryonic fibroblasts (MEFs). […] Cells were then lysed and samples containing equal amounts of protein were analysed by western blot using the indicated antibodies. (B) Quantitation of data from multiple experiments as in (A) expressed as LC3II normalized to actin, mean ± SEM (control cells without treatment = 1; n = 3). […] Cells were then lysed and samples containing equal amounts of protein were analysed by western blot using the indicated antibodies. (D) Quantitation of data from multiple experiments as in (C) expressed as LC3II normalized to actin, mean ± SEM (control cells without treatment = 1; n = 3).

[2] = test system: LC3II in MEFs; experiment: LC3 modification in MEFs (western blot); type: cell-based, mouse; settings: 24 h; for ratio of the two forms of LC3: WT MEFs, MK2206 5 μM or 2DG 10 mM, Fig. 3A
Experimental: (§1) After treatment, cells were lysed in ice-cold lysis buffer containing 1% (v/v) Triton X-100 (215680010, Acros Organics), 50 mM Tris (T6066-1KG, Sigma-Aldrich)–HCl (258148-2.5 L, Sigma-Aldrich) pH 7.4, 50 mM NaCl (BP358-212, Fisher Scientific), 0.2 mM EDTA (BP120-500, Fisher Scientific), 0.2 mM EGTA (E1102, Melford), 50 mM β-glycerophosphate (G9422, Sigma-Aldrich), 1 mM Na3VO4 (S6508, Sigma-Aldrich), 15 mM β-mercaptoethanol (125472500, Acros Organics) and 1 × protease inhibitor cocktail (5056489001, Roche). Lysates were spun at 16,000 × g for 10 min at 4 °C; the supernatants were kept and total protein concentration was quantified by Bradford assay following the manufacturer's instructions.
(§2) These procedures were performed as described previously.
Fig. 3 Role of eEF2K in autophagy in mouse embryonic fibroblasts (MEFs). Wildtype (WT) and eEF2K^−/− (KO) MEFs were treated, where indicated, with MK2206 (MK) (5 μM) or 10 mM 2-deoxyglucose (2DG) or in medium lacking glucose (− Glc) for 24 h. Cells were then lysed and samples containing equal amounts of protein were analysed by western blot using the indicated antibodies. (B) Quantitation of data from multiple experiments as in (A) expressed as LC3II normalized to actin, mean ± SEM (control cells without treatment = 1; n = 3). (C) Wild-type (WT) and eEF2K^−/− (KO) MEFs were treated, where indicated, with rapamycin (50 nM) or AZD8055 (0.5 μM) and/or chloroquine (10 μM) for 24 h. Cells were then lysed and samples containing equal amounts of protein were analysed by western blot using the indicated antibodies. (D) Quantitation of data from multiple experiments as in (C) expressed as LC3II normalized to actin, mean ± SEM (control cells without treatment = 1; n = 3).

[3] = test system: P-eEF2 in A549 cells; experiment: eEF2 phosphorylation in A549 cells (western blot); type: cell-based, human; settings: for phosphorylation of eEF2: 16 h, 2DG 10 mM, rapamycin 100 nM, AZD8055 1 μM, MG132 10 μM, Fig. 2A
Experimental: as §1, §2
Cells were then treated with 10 mM 2-deoxyglucose (2DG), rapamycin (100 nM), AZD8055 (1 μM) or MG132 (10 μM) for 16 h. Cells were then lysed and samples containing equal amounts of protein were analysed by western blot using the indicated antibodies. Values given below each lane show quantitation of the signal for LC3II, corrected for the actin signal from multiple experiments as in (A) expressed as LC3II normalized to actin, mean ± SEM (control cells without treatment = 1; n = 3). (B) A549 cells were cultured as in (A) to induce eEF2K knockdown. A549 cells were transiently transfected with the GST-BHMT construct and maintained in full media in the presence or absence of AZD8055 (1 μM) for 16 h, in the presence of leupeptin and E64d. GST-BHMT was precipitated with glutathione agarose from the whole cell extracts (bottom panel). Values given below show the quantitation of data from multiple experiments as in (B) expressed as the level of BHMT fragment normalized to the control without IPTG, mean ± SEM (control cells without treatment = 1; n = 3). Values given below each lane show quantitation of the signal for P-eEF2, corrected for the eEF2 signal from multiple experiments as in (B) expressed as P-eEF2 normalized to eEF2, mean ± SEM (control cells without treatment = 1; n = 3). (C) Cells were treated as described in Supplemental Fig. S3, visualized by confocal microscopy and the rate of autophagosome–lysosome fusion was measured according to green/red fluorescence ratio which reflect the percentage of unfused LC3. Scale bar = 20 μm. (D) Data quantification of C, data are presented as means ± SEM. (n = 5) ***P < 0.001, obtained by two-way ANOVA (Dunnett's test). (E) Untransfected A549 cells were treated with AZD8055 and BafA1 as described in A, cell lysates were collected at T0, 1 and 3 h for immunoblotting analysis. Values given below each lane show quantitation of the signal for LC3II, corrected for the LC3I signal from multiple experiments as in (E) expressed as LC3II normalized to LC3I, mean ± SEM (control cells without treatment = 1; n = 3).

[4] = test system: eEF2K levels in A549 cells; experiment: eEF2K protein levels in A549 cells (western blot); type: cell-based, human; settings: CHX 5 μg/mL, 24 h, Fig. 1E
Experimental: as §1, §2
(§3) Fig. 1 eEF2K helps cells withstand glucose starvation. […] Cells were then lysed and samples containing equal amounts of protein were analysed by western blot using the indicated antibodies. Values given below each lane show quantitation of the signal for P-eEF2, corrected for the eEF2 signal from multiple experiments as in (A) expressed as P-eEF2 normalized to eEF2, mean ± SEM (control cells without treatment = 1; n = 3). […] Cells were lysed and caspase 3/7 activity was determined. […] Cell death was measured using CellTox Green® assay. […]

[5] = test system: A549 cells; experiment: cell death of A549 cells (CellTox Green assay); type: cell-based, human; settings: CHX 5 μg/mL
Experimental: (§4) Caspase 3/7 assays (G8090, Promega) were performed according to the manufacturer's instructions. Briefly, 10,000 cells/well were plated overnight in a 96-well plate. Cells were treated as described in the figure legends for the indicated time period. To measure caspase 3/7 activity, 50 μL of caspase Glo 3/7 reagent was added to each well for 2 h with constant shaking at room temperature. Luminescence was measured using a BMG Labtech FLUOstar Optimi plate reader. Cytotoxicity was evaluated by CellTox Green® cytotoxicity assay (Promega). Briefly, 10,000 cells/well were plated overnight in a 96-well plate. Cells were treated as described in the figure legends for the indicated time period. Fluorescence was measured at 485–500 nmEx/520–530 nmEm using a BMG Labtech FLUOstar Optimi plate reader.
as §3

[6] = test system: P-eEF2 in HCT116 cells; experiment: eEF2 phosphorylation in HCT116 cells (western blot); type: cell-based, human; settings: 24 h, CHX 5 μg/mL or Harringtonine 2 μg/mL, Fig. 1C
Experimental: as §1, §2, §3

[7] = test system: HCT116 cells; experiment: cell death markers in HCT116 cells (PARP cleavage, caspase 3/7 activity); type: cell-based, human; settings: CHX 5 μg/mL or Harringtonine 2 μg/mL, Fig. 1B, C
Experimental: as §4, §3

[8] = test system: mTORC1 signalling in HCT116 cells; experiment: mTORC1 signalling in HCT116 cells (western blot); type: cell-based, human; settings: 24 h, Harringtonine 2 μg/mL, Fig. 1C
Experimental: as §1, §2, §3

[9] = test system: LC3II in A549 cells; experiment: LC3 modification in A549 cells (western blot); type: cell-based, human; settings: A549 with or without eEF2K knockdown; chloroquine 10 μM; 16 h; Fig. S1
Experimental: as §1, §2
Cells were then treated with 10 mM 2-deoxyglucose (2DG), rapamycin (100 nM), AZD8055 (1 μM) or MG132 (10 μM) for 16 h. Cells were then lysed and samples containing equal amounts of protein were analysed by western blot using the indicated antibodies. Values given below each lane show quantitation of the signal for LC3II, corrected for the actin signal from multiple experiments as in (A) expressed as LC3II normalized to actin, mean ± SEM (control cells without treatment = 1; n = 3). (B) A549 cells were cultured as in (A) to induce eEF2K knockdown. […] (D) Data quantification of C, data are presented as means ± SEM. […]

[10] = test system: GST-BHMT cleavage (autophagic flux) in A549 cells; experiment: GST-BHMT cleavage assay in A549 cells; type: cell-based, human; settings: chloroquine, data not shown

Structure (SMILES) | level of phosphorylation of eEF2 [1] | ratio of the two forms of LC3 [2] | phosphorylation of eEF2 [3] | effect on eEF2 phosphorylation (p-eEF2) [6] | cell survival in cells starved of glucose and treated with eEF2K inhibitor JAN-849 [7] | further results
O=CC[C@@H](O)[C@H](O)[C@H](O)CO [2-DG, 2-deoxyglucose] | increased the level of phosphorylation of eEF2 | shift in the ratio of the two forms of LC3 from the upper (LC3I) to the lower band | induced the phosphorylation of eEF2 | – | – | –
C[C@@H]1C[C@@H]([C@H](O)CC2CC(=O)NC(=O)C2)C(=O)[C@@H](C)C1 [CHX, cycloheximide] | – | – | – | modest decrease | restored cell survival | levels of eEF2K [4]: decreased the levels of eEF2K; effect on cell survival under control conditions ([5]; A549): adverse effect; death induced by glucose starvation ([5]; A549 with eEF2K knockdown, 48 h, Fig. 1D): partially rescued; eEF2 phosphorylation ([3]; CHX 5 μg/mL, 24 h, Fig. 1E): decrease in eEF2 phosphorylation
COC(=O)C[C@](O)(CCC(C)(C)O)C(=O)O[C@@H]1C(OC)=C[C@]23CCCN2CCc2cc4c(cc2[C@H]13)OCO4 [Harringtonine] | – | – | – | no effect | restored cell survival | effect on mTORC1 signalling [8]: very little
CC(C)C[C@@H](C=O)NC(=O)[C@H](CC(C)C)NC(=O)[C@H](CC(C)C)NC(=O)OCc1ccccc1 [MG132] (Cbz-Leu-Leu-Leu-aldehyde) | – | – | induced the phosphorylation of eEF2 | – | – | –
NC1(c2ccc(-c3nc4ccn5c(=O)[nH]nc5c4cc3-c3ccccc3)cc2)CCC1 [MK2206] | increased the level of phosphorylation of eEF2 | shift in the ratio of the two forms of LC3 from the upper (LC3I) to the lower band | – | – | – | –
CCN(CC)CCCC(C)Nc1ccnc2cc(Cl)ccc12 (stereo not drawn) [chloroquine] | – | – | – | – | – | modified LC3 [9]: increased modified LC3; cleavage of GST-BHMT [10]: completely blocked; levels of modified LC3-II ([2]; MEFs treated with rapamycin (50 nM) or AZD8055 (0.5 μM), chloroquine 10 μM, Fig. 3C): increased the levels of modified LC3-II
